Test results as given in patent publication US20070087744A1, “METHOD FOR REDUCING THE TIME DELAY IN A TELEPHONE SYSTEM” (priority 2003, published 2007).
In brackets after ≈: the same amount, converted by molar mass.

Assays:
Test in all cases: In Vitro Minimum Inhibitory Concentration
Type in all cases: cell-based
[1] = tested on: Klebsiella oxytoca
Experimental: (§1) Subsequent dilutions had the concentration calculated in ppm. Each concentration was challenged with an equal volume of microbial inoculums. After incubation the lowest concentration showing “No-Growth” was recorded as the Minimum Inhibitory Concentration.

[2] = tested on: Enterococcus faecalis
Experimental: as §1

[3] = tested on: Klebsiella pneumoniae
Experimental: as §1

[4] = tested on: Micrococcus luteus; settings: ATCC7468, ATCC 7468
Experimental: as §1

[5] = tested on: Candida parapsilosis; settings: Lodderomyces parapsilosis; clinical isolate 040400Cp2
Experimental: as §1

[6] = tested on: Bacteroides fragilis
Experimental: as §1

[7] = tested on: Escherichia coli; settings: for MIC: Escherichia coli
Experimental: as §1

[8] = tested on: Haemophilus influenzae
Experimental: as §1

[9] = tested on: Enterobacter aerogenes; settings: Klebsiella aerogenes
Experimental: as §1

[10] = tested on: Acinetobacter baumannii
Experimental: as §1

[11] = tested on: Enterococcus faecium
Experimental: as §1

[12] = tested on: Candida albicans
Experimental: as §1

[13] = tested on: Candida tropicalis; settings: ATCC750, ATCC 750
Experimental: as §1

MIC ([1]; ATCC43165, ATCC 43165): 8750 µg/mL (≈ 190 mM) | MIC ([1]; clinical isolate 061901Ko1): 8750 µg/mL (≈ 190 mM) | MIC ([2]; ATCC29212, ATCC 29212): 8750 µg/mL (≈ 190 mM) | MIC ([2]; clinical isolate 040400Esp17): 8750 µg/mL (≈ 190 mM) | MIC ([3]; ATCC13883, ATCC 13883): 4380 µg/mL (≈ 95 mM) | MIC ([3]; clinical isolate 06190Kpn1): 8750 µg/mL (≈ 190 mM) | MIC [4]: 8750 µg/mL (≈ 190 mM) | MIC [5]: 17.5 mg/mL (≈ 380 mM) | MIC ([6]; ATCC25285, ATCC 25285): 8750 µg/mL (≈ 190 mM) | MIC ([6]; clinical isolate 061901Bf2): 8750 µg/mL (≈ 190 mM) | MIC ([7]; ATCC11229, ATCC 11229): 8750 µg/mL (≈ 190 mM) | MIC ([7]; ATCC25922, ATCC 25922): 8750 µg/mL (≈ 190 mM) | MIC ([7]; clinical isolate 051599Ec): 8750 µg/mL (≈ 190 mM) | MIC ([8]; ATCC19418, ATCC 19418): 5830 µg/mL (≈ 127 mM) | MIC ([8]; clinical isolate 121699Hi): 5830 µg/mL (≈ 127 mM) | MIC ([9]; ATCC13048, ATCC 13048): 8750 µg/mL (≈ 190 mM) | MIC ([9]; clinical isolate 040400Ea1): 8750 µg/mL (≈ 190 mM) | MIC ([10]; ATCC19606, ATCC 19606, trypticase soy broth): 4380 µg/mL (≈ 95 mM) | MIC ([10]; clinical isolate 061901 Ab1): 8750 µg/mL (≈ 190 mM) | MIC ([11]; ATCC51559, ATCC 51559): 8750 µg/mL (≈ 190 mM) | MIC ([11]; clinical isolate 061901Efm1): 8750 µg/mL (≈ 190 mM) | MIC ([12]; ATCC10231, ATCC 10231): 17.5 mg/mL (≈ 380 mM) | MIC ([12]; clinical isolate 040400Ca2): 17.5 mg/mL (≈ 380 mM) | MIC [13]: 17.5 mg/mL (≈ 380 mM)
SMILES: CCO [70% ethyl alcohol, ethyl alcohol]
Minimum Inhibitory Concentration ([7]; clinical isolate 070399Ec): 8750 ppm
